Measurements: patent publication US11865126B2, “Method for treating anxiety disorders, headache disorders, and eating disorders with psilocybin” (priority 2019, dated 2024)

System: healthy subjects
Assay: Toronto Empathy Questionnaire (TEQ)
Format: in vivo, human
From the text: In some embodiments, the Toronto Empathy Questionnaire (TEQ) is utilized to evaluate the safety and/or efficacy of psilocybin. The TEQ represents empathy as a primarily emotional process. […] The TEQ is a brief, reliable and valid instrument for the assessment of empathy. In some embodiments, after treating according to the methods of the disclosure, a subject's TEQ score increases by about 5%, about 10%, about 15%, about 20%, about 25%, about 30%, about 35%, about 40%, about 45%, about 50%, about 55%, about 60%, about 65%, about 70%, about 75%, about 80%, about 85%, about 90%, about 95%, or about 100%, about 110%, about 120%, about 130%, about 140%, about 150%, about 160%, about 170%, about 180%, about 190%, about 200%, about 210%, about 220%, about 230%, about 240%, about 250%, about 260%, about 270%, about 280%, about 290%, or about 300%, or more, compared to prior to treatment.
The following list of outcome measures are non-exhaustive. • a. The short-term change from Baseline (Day −1 [Visit 2]) to Day 7 (Visit 5) in cognitive measures of attention, spatial and working memory and executive function was measured by a composite score of the CANTAB Panel (Spatial Working Memory [SWM], Rapid Visual Information Processing [RVP], Paired Associates Learning [PAL]). • b. The short-term change from Baseline (Day −1 [Visit 2]) to Day 7 (Visit 5) in Social Cognition Panel scales (Pictorial Empathy Test [PET], Reading the Mind in the Eyes Test [RMET], Toronto Empathy Questionnaire [TEQ], Social Value Orientation [SVO], Scale of Social Responsibility [SSR]). • c. The change from Baseline (Day −1 [Visit 2]) to Day 28 (Visit 6) in cognitive measures of attention, spatial and working memory and executive function as measured by a composite score of the CANTAB Panel (SWM, RVP, PAL). • d. The long-term change from Baseline (Day −1 [Visit 2]) to Day 84 (Visit 7) in Social Cognition Panel scales (PET, RMET, TEQ, SVO, SSR). • e. Dose-related differences between cognitive effects of psilocybin at Baseline (Day −1 [Visit 2]), Day 7 (Visit 5) and Day 28 (Visit 6), as measured by a composite score of the CANTAB Panel (SWM, RVP, PAL). • f. Dose-related differences between psychological effects of psilocybin at Baseline (Day −1 [Visit 2]), Day 7 (Visit 5) and Day 84 (Visit 7), as measured by Social Cognition Panel scales (PET, RMET, TEQ, SVO, SSR). • g. Differences in cognitive effects of psilocybin between psilocybin-naïve and experienced subjects at Baseline (Day −1 [Visit 2]), Day 7 (Visit 5) and Day 28 (Visit 6), as measured by a composite score of the CANTAB Panel (SWM, RVP, PAL). • h. Differences in Positive and Negative Affect Schedule (PANAS) after study drug administration on Day 0 (Visit 3). • i. Differences between psilocybin and placebo in the Emotion Recognition Test (ERT), Intra-Extra Dimensional Set Shift (IED), One Touch Stockings (OTS), Verbal Fluency and Digit Span Forward at Day 7 (Visit 5). • j. A composite score of the CANTAB Panel, including the following tests: • i. Spatial Working Memory (SWM) (performed at Visit 2, Visit 5, and Visit 6). • ii. Rapid Visual Information Processing (RVP) (performed at Visit 2, Visit 5, and Visit 6). • iii. Paired Associates Learning (PAL) (performed at Visit 2, Visit 5, and Visit 6). • k. Cognitive Flexibility Panel • i. Emotion Recognition Task (ERT) (performed at Visit 5). • ii. Intra-Extra Dimensional Set Shift (IED) (performed at Visit 5). • iii. One Touch Stockings (OTS) (performed at Visit 5). • iv. Verbal Fluency (performed at Visit 5). • v. Digit Span Forward (performed at Visit 5). • l. Five Dimension Altered States of Consciousness questionnaire (5D-ASC) (performed at Visit 3). • m. PANAS (performed at Visit 2 and Visit 3). • n. NEO-Five Factor Inventory (NEO-FFI) (performed at Visit 2, Visit 5, and Visit 7). • o. Symptom Checklist-90 item (SCL-90) (performed at Visit 2, Visit 5, and Visit 7). • p. […]

## CN(C)CCc1c[nH]c2cccc(OP(=O)(O)O)c12 [psilocybin]
Day 7, MMRM
  TEQ change from baseline, LS mean difference Psilocybin 10 mg - Placebo: 0.1
  TEQ change from baseline, LS mean difference Psilocybin 25 mg - Placebo: 0.2
  TEQ change from baseline, LS mean difference Psilocybin 25 mg-10 mg: 0.1
Day 84, MMRM
  TEQ change from baseline, LS mean difference Psilocybin 10 mg - Placebo: 0.1
  TEQ change from baseline, LS mean difference Psilocybin 25 mg - Placebo: 0.1
  TEQ change from baseline, LS mean difference Psilocybin 25 mg-10 mg: 0.0
Psilocybin 10 mg, Day 84, MMRM
  TEQ change from baseline, LS mean: −0.1
Psilocybin 25 mg, Day 84, MMRM
  TEQ change from baseline, LS mean: −0.0
